# “Also recorded” adds a separate entry of the source. Like-named read-outs stand apart in the source and are kept apart here.
# Legend:
# [1] = tested on: Primary tumor; assay: Percent inhibition of growth relative to controls, primary tumor (Table 4); format: in vivo
# [2] = tested on: Metastases; assay: Percent inhibition of growth relative to controls, metastases (Table 4); format: in vivo
# [3] = tested on: SGC-7901 cells; assay: Cell growth assay; format: cell-based; settings: Homo sapiens, read-out: inhibition rate of cell growth
# Description: (§1) Human gastric adenocarcinoma cell line SGC-7901 which had been widely used for gastric cancer research was maintained in Hubei Key Laboratory of Tumor Biological Behaviors. Cells were cultured in RPMI-1640 medium supplemented with 10% standard newborn bovine serum in the 5% CO2, saturated humidity, 37° C. incubator (Shel Lab, OR, USA). The culture medium was changed every 2 days.
# SGC-7901 cells at exponential growth phase were planted in 24-well culture plates (Corning, N.Y., USA) at a density of 1×10^5/well. After 48 h, cell numbers were determined by direct cell counting of 3 wells, which was designated as cell number of day 0 (D0). Then the cells were divided into 6 groups, treated with normal saline (100 μl), ADM (0.5 μg/ml), ADM (1.0 μg/ml), PADM (0.9 μg/ml), PADM (1.8 μg/ml), and PADM (3.6 μg/ml), respectively, 3 wells per group. Cells in each group were harvested and counted daily from D2 to D7. The cell growth curve was plotted.
# [4] = tested on: SGC-7901 cells; assay: Flow cytometric analysis of cell cycle; format: cell-based, Human; settings: SGC-7901, 24 h, ADM 0.25 μg/ml, PADM 0.45 μg/ml
# Description: as §1
# To study the effect of PADM on cell cycle, flow cytometric analysis was performed. SGC-7901 cells were planted in 6-well culture plates (Corning, N.Y., USA), at a density of 2×10^6/well. After 48 h, the cells were divided into 3 groups and treated for 24 h with normal saline (25 μl), ADM (0.25 μg/ml), and PADM (0.45 μg/ml). The cells in each group were harvested to make single-cell suspension, centrifuged at 4° C.×1000 rpm for 10 min, washed twice with phosphate buffered saline (pH=7.4), fixed and stained with PI kit. Cell cycle analysis was performed by flow cytometry with FC 500 (Beckman Coulter, Calif., USA).
# [5] = tested on: SGC-7901 peritoneal carcinomatosis; assay: GC peritoneal carcinomatosis model, therapeutic study; format: in vivo, nude mice; settings: ADM 2.0 mg/kg; for lung metastasis / median (range) ePCI score: D40; for lung metastasis / relative ePCI reduction: PADM 7.2 mg/kg i.p x8; for median (range) ePCI score: i.p x8 (D8-D36), PADM 7.2 mg/kg; for relative ePCI reduction: compared with control
# [6] = for peripheral blood parameters (RBC, lymphocytes) versus control: D16, D24, D32 tail vein blood; for liver and kidney function (ALT, AST, BUN, Cr) versus control: D40 serum, 4 major parameters; for body weight: ADM 2.0 mg/kg, PADM 7.2 mg/kg i.p x8 (FIG. 3)
# Description: After 3 days of adaptation, the animals were used for in vivo study, and the protocols were approved by the Animal Care Committee of Wuhan University.
# SGC-7901 cells (5×10^6/0.2 ml) were subcutaneously inoculated into the back of nude mice (n=4) as donor tumors, and cells (1×10^7/0.4 ml) were i.p inoculated into the peritoneal cavity of nude mice (n=2). After 50 days, tumor nodules and ascites were obtained and tumor tissue homogenate was re-suspended in ascites at a density of 1×10^7/ml (ascites were used as condition medium). These cell suspensions were injected i.p into 29 nude mice, 0.2 ml containing 5×10^6 cells for each animal, on day 0 (D0). On D8, all of the mice were randomized into 3 groups: control group (n=9), ADM group (n=10) and PADM group (n=10). […] D40 was set as the end point of this study. On D16, D24 and D32, 80 μl of blood was obtained from tail veins, anticoagulated by EDTA, and analyzed by Sysmex KX-21 automated hematology analyzer (Sysmex, Kobe, Japan). On D40, all mice were sacrificed, blood was obtained, coagulated and centrifugated at 4° C.×3000 rpm for 10 min to separate serum for biochemical analysis, including ALT (alanine aminotransferase), AST (aspartate aminotransferase), BUN (blood urea nitrogen), Cr (creatinine), CK (creatine kinase), CK-MB (creatine kinase-MB), LDH (lactate dehydrogenase) by Aeroset Clinical Chemistry Analyzer (Abbott Laboratories, IL, USA).
# At autopsy, major organs including the heart, liver, kidneys, spleen and lungs were examined for any toxic changes. Any organs involved by the tumor and the tumor nodules were formalin-fixed, paraffin-embedded, and cut at 5-μm thickness, for histopathological study after hematoxylin and eosin (H&E) staining
# [7] = mice, cited from earlier work
# [8] = target: Cat B (Homo sapiens, UniProt P07858); settings: cited from earlier work
# [9] = 37° C., over 6-7 h; cited from earlier work
# [10] = Pilot dosage study; settings: nude mice
# [11] = Metastases to Mediastinal lymph nodes
compound,measurement,setting,value
"COc1cccc2c1C(=O)c1c(O)c3c(c(O)c1C2=O)C[C@@](O)(C(=O)CO)C[C@@H]3O[C@H]1C[C@H](N)[C@H](O)[C@H](C)O1 [ADM, doxorubicin, reference compound]",Percent inhibition of growth relative to controls,[1],42%
same,Percent inhibition of growth relative to controls,[2]; Metastases to Diaphragm,19%
same,Percent inhibition of growth relative to controls,[2]; Metastases to Lung,36%
same,Percent inhibition of growth relative to controls,[2]; [11],9.1%
same,Percent inhibition of growth relative to controls,[2]; Metastases to Mesenteric,9.1%
same,Percent inhibition of growth relative to controls,[2]; Metastases to Retroperitoneal,65%
same,inhibition at 0.5 µg/mL,"[3]; SGC-7901, D7, 0.5 μg/ml",80.2%
same,inhibition at 1 µg/mL,"[3]; SGC-7901, D7, 1.0 μg/ml",96.3%
same,effect on cell cycle / apoptosis,[4],a prominent apoptosis peak was observed
same,lung metastasis,[5],no lung metastasis
same,median (range) ePCI score,[5],1.5 (0-6)
same,relative ePCI reduction,[5],75%
same,"peripheral blood parameters (RBC, lymphocytes) versus control",[6],significantly lower RBC counts
same,nude mice died due to severe toxicity,"[6]; D36, group n=10",1
same,"liver and kidney function (ALT, AST, BUN, Cr) versus control",[6],3 out of the 4 parameters achieved statistical significance
same,animals with significant myocardium toxicities (histopathology),"[6]; male, BALB/c nude, mouse, in vivo",7 animals
same,body weight course versus control,"[6]; nude mice PC model, whole study period to D40",significant decrease on D24
same,body weight,[6]; nude mice PC model,18.40 ± 2.97 g
same,LD50,[7]; given intraperitoneally (i.p),13.2 mg/kg
same,LD50,[7]; given intravenously,12.0 mg/kg
"COc1cccc2c1C(=O)c1c(O)c3c(c(O)c1C2=O)C[C@@](O)(C(=O)CO)C[C@@H]3O[C@H]1C[C@H](NC(=O)OCc2ccc(NC(=O)[C@H](CCCCN)NC(=O)[C@H](Cc3ccccc3)NC(C)=O)cc2)[C@H](O)[C@H](C)O1 [PADM, Ac-Phe-Lys-PABC-ADM]","Ratio, PADM/Dox",[1],1.05
same,"Ratio, PADM/Dox",[2]; Metastases to Diaphragm,2.3
same,"Ratio, PADM/Dox",[2]; Metastases to Lung,1.9
same,"Ratio, PADM/Dox",[2]; [11],5.7
same,"Ratio, PADM/Dox",[2]; Metastases to Mesenteric,3.8
same,"Ratio, PADM/Dox",[2]; Metastases to Retroperitoneal,1.2
same,effect on cell cycle / apoptosis,[4],did not show significant apoptosis
same,lung metastasis,[5],no lung metastasis
same,median (range) ePCI score,[5],1 (1-4)
same,relative ePCI reduction,[5],83.3%
same,cleavage in Cat B-rich medium,[8],rapidly cleaved
same,"peripheral blood parameters (RBC, lymphocytes) versus control",[6],no differences
same,animals with significant myocardium toxicities (histopathology),"[6]; D40, group n=10",4 animals
same,"liver and kidney function (ALT, AST, BUN, Cr) versus control",[6],only ALT levels achieved statistical significance
same,body weight,[6]; nude mice PC model,23.61 ± 0.80 g
same,changes in human plasma (stability),[9],no changes were observed; also recorded: stable in human plasma
same,histopathological study of major organs,[10]; after 4 administrations,No obvious damages
same,body weight changes,"[10]; after the fourth administration, total 96.0 mg/kg group A, 144.0 mg/kg group B",persistent body weight decreases
same,body weight changes,"[10]; i.p, first 3 injections, groups A and B",no obvious changes in body weight
same,ceiling dosage set for formal in vivo test,[10]; total dosage,below 96.0 mg/kg

# From patent publication US20140364359A1, “COMPOSITIONS AND METHODS FOR TREATING CANCER AND INFLAMMATION-RELATED DIESEASES AND CONDITIONS” (priority 2012, published 2014)
